Literature values in US10925995B2, “Absorber and absorbent article using the same” (LIVEDO CORPORATION, priority 2012, dated 2021).

Conditions: in water at 25 degrees centigrade; for acid dissociation constant pKa: no stage stated

Row | acid dissociation constant pKa | SMILES | further results
1 | 4.63 | CCCCCC(=O)O [hexanoic acid] | 
2 | 4.44 | CC(=O)CCC(=O)O [levulinic acid] | 
3 | 3.12 | Nc1cccc(C(=O)O)c1 [m-aminobenzoic acid] | 
4 | 3.74 | Nc1cccc(S(=O)(=O)O)c1 [m-aniline sulfonic acid] | 
5 | 3.81 | O=C(O)c1cccc(Br)c1 [m-bromobenzoic acid] | 
6 | 3.85 | O=C(O)c1cccc(I)c1 [m-iodobenzoic acid] | 
7 | 3.45 | O=C(O)c1cccc([N+](=O)[O-])c1 [m-nitrobenzoic acid] | 
8 | 3.19 | O=C(O)C(O)c1ccccc1 (stereo not shown) [mandelic acid] | 
9 | 3.43 | O=C(O)CS [mercaptoacetic acid] | 
10 | 3.26 | COC(=O)c1ccncc1 [methyl isonicotinate] | 
11 | 3.23 | Nc1ccc(S(=O)(=O)O)cc1 [p-aniline sulfonic acid] | 
12 | 4.00 | O=C(O)c1ccc(Br)cc1 [p-bromobenzoic acid] | 
13 | 3.55 | N#Cc1ccc(C(=O)O)cc1 [p-cyanobenzoic acid] | 
14 | 4.00 | O=C(O)c1ccc(I)cc1 [p-iodobenzoic acid] | 
15 | 3.44 | O=C(O)c1ccc([N+](=O)[O-])cc1 [p-nitrobenzoic acid] | 
16 | 4.31 | O=C(O)CCCCCC(=O)O [pimelic acid] | 
17 | 4.64 | CCCCC(=O)O [valeric acid] | 
18 | 4.12 | C=CCC(=O)O [vinyl acetic acid] | 

The next lines start with the compound.

Row | SMILES | acid dissociation constant pKa | further results
19 | O=C(O)c1cccc(C(=O)O)n1 [2,6-pyridinedicarboxylic acid] |  | acid dissociation constant pKa, third stage (third stage): 4.68
20 | O=C(O)CCCl [3-chloropropionic acid] | 3.92 | 
21 | NCCCC(=O)O [4-aminobutyric acid] | 4.03 | 
22 | O=C(O)[C@H](O)[C@@H](O)C(=O)O [(R,R)-tartaric acid] |  | acid dissociation constant pKa, second stage: 4.44
23 | O=C1O[C@H]([C@@H](O)CO)C(O)=C1O [L-ascorbic acid] | 4.03 | 
24 | O=C(O)CCCCC(=O)O [adipic acid] | 4.26 | 
25 | O=C(O)/C=C\c1ccccc1 [cinnamic acid (cis)] | 3.88 | 
26 | COC(=O)CC(O)(CC(=O)O)C(=O)O (stereo not shown) [citric acid monomethyl ester] | 4.35 | 
27 | O=C(O)CC(O)(CC(=O)O)C(=O)O [citric acid] |  | acid dissociation constant pKa, second stage: 4.35
28 | C/C=C/C(=O)O [crotonic acid] | 4.69 | 
29 | O=C(O)C1CCCCC1 [cyclohexane carboxylic acid] | 4.70 | 
30 | O=C(O)C(O)C(O)C(=O)O (stereo not drawn) [d-tartaric acid] |  | acid dissociation constant pKa, second stage: 3.95
31 | O=C(O)/C=C/C(=O)O [fumaric acid] |  | acid dissociation constant pKa, second stage: 4.10
32 | O=C(O)CCCC(=O)O [glutaric acid] | 4.13 | 
33 | CCCCCCC(=O)O [heptanoic acid] | 4.66 | 
34 | O=C(O)c1ccncc1 [isonicotinic acid] |  | acid dissociation constant pKa, second stage: 4.87
35 | Nc1ccccc1C(=O)O [o-aminobenzoic acid] |  | acid dissociation constant pKa, second stage: 4.95
36 | COc1ccccc1C(=O)O [o-anisic acid] | 4.09 | 
37 | O=C(O)c1ccccc1C(=O)O [o-benzenedicarboxylic acid] |  | acid dissociation constant pKa, second stage: 4.93
38 | Nc1ccc(C(=O)O)cc1 [p-aminobenzoic acid] |  | acid dissociation constant pKa, second stage: 4.85
39 | O=C(O)Cc1ccccc1 [phenylacetic acid] | 4.10 | 
40 | O=C(O)c1ccc2ccccc2n1 [quinaldic acid] |  | acid dissociation constant pKa, second stage: 4.75
